Laboratory results as given in paper PMC3502614 (Science (New York, N.Y.), 2011).

Target: T1, M. smegmatis RpsA (Mycolicibacterium smegmatis, UniProt A0QYY6)
T1 sequence (A0QYY6 1-479): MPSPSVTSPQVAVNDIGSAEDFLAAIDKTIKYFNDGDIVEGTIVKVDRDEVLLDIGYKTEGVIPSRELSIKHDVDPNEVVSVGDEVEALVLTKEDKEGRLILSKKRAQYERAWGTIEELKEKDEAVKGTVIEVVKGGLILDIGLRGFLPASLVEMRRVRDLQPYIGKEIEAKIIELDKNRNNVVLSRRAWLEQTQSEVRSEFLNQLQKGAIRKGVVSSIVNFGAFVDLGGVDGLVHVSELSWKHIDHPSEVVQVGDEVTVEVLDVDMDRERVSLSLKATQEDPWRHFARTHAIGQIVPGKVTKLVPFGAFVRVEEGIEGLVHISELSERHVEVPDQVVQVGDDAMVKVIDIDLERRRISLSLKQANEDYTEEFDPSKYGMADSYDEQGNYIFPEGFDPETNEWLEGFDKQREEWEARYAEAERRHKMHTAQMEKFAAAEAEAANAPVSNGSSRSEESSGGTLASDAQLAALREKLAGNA
Experiment: isothermal titration calorimetry
Type: binding

O=C(O)c1cnccn1 [POA, 2-pyrazinecarboxylic acid]
weak binding by ITC: RpsA from naturally PZA-resistant M. smegmatis bound to POA only very weakly
